# Assay results from ChEMBL document CHEMBL1201862, “PubChem BioAssay data set” (2004).
#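 Assay format: 96-well plates, 48-hour exposure. Abbreviation: GI50, concentration required for 50% inhibition of growth.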 Calls of active or inactive are those of the source. Cut-off read from the data, not from the text of the source: active = GI50 up to about 1.1 µM and inactive = higher.
# Key:
# Experiment in all cases: NCI-60 cell line screen, 48 h
# UO-31 = test system: UO-31
# TK-10 = test system: TK-10
# OVCAR-8 = test system: OVCAR-8
# M14 = test system: M14
# SF-268 = test system: SF-268
# CCRF-CEM = test system: CCRF-CEM
# SK-MEL-5 = test system: SK-MEL-5
# HCT-15 = test system: HCT-15
# ACHN = test system: ACHN
# K562 = test system: K562
# DMS-273 = test system: DMS-273
# SF-295 = test system: SF-295
# SN12C = test system: SN12C
# KM12 = test system: KM12
# NCI-H23 = test system: NCI-H23
# LOX IMVI = test system: LOX IMVI
SMILES,GI50 (UO-31),GI50 (TK-10),GI50 (OVCAR-8),GI50 (M14),GI50 (SF-268),GI50 (CCRF-CEM),GI50 (SK-MEL-5),GI50 (HCT-15),GI50 (ACHN),GI50 (K562),GI50 (DMS-273),GI50 (SF-295),GI50 (SN12C),GI50 (KM12),GI50 (NCI-H23),GI50 (LOX IMVI)
NC(=O)c1ccc(Cl)c([N+](=O)[O-])c1,> 100 µM (inactive),> 100 µM (inactive),> 100 µM (inactive),> 100 µM (inactive),> 100 µM (inactive),> 100 µM (inactive),> 100 µM (inactive),> 100 µM,> 100 µM (inactive),> 100 µM (inactive),> 100 µM (inactive),> 100 µM (inactive),> 100 µM (inactive),> 100 µM (inactive),> 100 µM (inactive),> 100 µM (inactive)
COC(=O)C1=CC2OC1(C)C1(CC1)C2=O (configuration not stated),22.1 µM (inactive),> 10 µM (inactive),16 µM (inactive),13.5 µM (inactive),20.3 µM (inactive),5.6 µM (inactive),> 10 µM (inactive),15.9 µM,15.3 µM (inactive),12.2 µM (inactive),> 10 µM (inactive),19 µM (inactive),16.6 µM (inactive),20.6 µM (inactive),22 µM (inactive),14 µM (inactive)
N#CC(C(=O)CCC(=O)C(C#N)c1ccccc1)c1ccccc1 (configuration not stated),> 100 µM (inactive),> 100 µM (inactive),> 100 µM (inactive),> 100 µM (inactive),> 100 µM (inactive),> 100 µM (inactive),> 100 µM (inactive),> 100 µM,> 100 µM (inactive),> 100 µM (inactive),> 100 µM (inactive),> 100 µM (inactive),> 100 µM (inactive),> 100 µM (inactive),> 100 µM (inactive),> 100 µM (inactive)
COC1(OC)CCCCC2c3cccc(OC(C)=O)c3C21OC(C)=O (configuration not stated),51.6 µM (inactive),> 100 µM (inactive),> 100 µM (inactive),> 100 µM (inactive),> 100 µM (inactive),> 100 µM (inactive),> 100 µM (inactive),73.8 µM,78.9 µM (inactive),55.3 µM (inactive),> 100 µM (inactive),> 100 µM (inactive),> 100 µM (inactive),> 100 µM (inactive),> 100 µM (inactive),> 100 µM (inactive)
Cc1cccc(C)c1NC(=O)CCC(=O)NNc1nnc(C)n1N,> 100 µM (inactive),> 100 µM (inactive),> 100 µM (inactive),> 100 µM (inactive),> 100 µM (inactive),> 100 µM (inactive),> 100 µM (inactive),> 100 µM,> 100 µM (inactive),> 100 µM (inactive),> 100 µM (inactive),> 100 µM (inactive),> 100 µM (inactive),> 100 µM (inactive),> 100 µM (inactive),> 100 µM (inactive)
NC(=O)c1c2c(cc3c(=O)c4ccccc4[nH]c13)CCCC2,> 100 µM (inactive),> 100 µM (inactive),> 97.3 µM (inactive),> 100 µM (inactive),> 100 µM (inactive),> 65 µM (inactive),> 100 µM (inactive),> 100 µM,> 100 µM (inactive),> 65.2 µM (inactive),> 100 µM (inactive),> 100 µM (inactive),> 100 µM (inactive),> 100 µM (inactive),> 93.3 µM (inactive),> 100 µM (inactive)
CC1CC[C@]2(C(=O)O)CCC3(COC(=O)/C=C\c4ccc(O)cc4)C(=CCC4[C@@]5(C)CC[C@H](O)C(C)(C)C5CC[C@]43C)[C@@H]2[C@H]1C (some centres not stated),17.7 µM (inactive),21.7 µM (inactive),20.1 µM (inactive),17.6 µM (inactive),14.7 µM (inactive),20.4 µM (inactive),18.2 µM (inactive),21 µM,10.4 µM (inactive),13 µM (inactive),20.3 µM (inactive),17.1 µM (inactive),20.8 µM (inactive),7.21 µM (inactive),13.9 µM (inactive),14.1 µM (inactive)
